Laboratory results from patent publication US12269859B2, “Synthetic immune receptors and methods of use thereof” (Angeles Therapeutics, Inc., priority 2016, dated 2025).
“Also recorded” adds a separate entry of the source.

How the values were obtained:
[1] = test system: RAJI cells; test: GLuc cytotoxicity assay, RAJI-GLuc cells; assay type: cell-based, human
Procedure: (D) Assay for Cytotoxic Activity in vitro and in vivo: The uninfected T cells or those expressing a control vector or SIR are cocultured with the target cell lines expressing a non-secretory form of a luciferase (such as GLuc, NLuc, Turboluc 16 etc.) for 4-96 hours and induction of cell lysis examined by measuring the luciferase activity as described in PCT/US17/52344. Alternate methods for measurement of cytotoxic activity (e.g., ^51Cr release assay or LDH release assay) can be used as well. The activity of T cells expressing a SIR can be also assayed in vivo using appropriate xenograft models in immunodeficient mice.
Cell death assay. To measure cell death, a novel assay based on ectopic cytosolic expression of Gluc or NLuc was utilized as described in PCT/US17/52344 “A Non-Radioactive Cytotoxicity Assay”. The method involves expression of a reporter in a target cells in a manner so that it is preferentially retained within the healthy cells but is either released from dead and dying cells or whose activity can be preferentially measured in dead and dying cells. The preferred reporter for this assay are 1) non-secreted forms of luciferases from the copepods, such as Gaussia princeps, Pleuromamma abdominalis, Metridia pacifica, Metridia curticauda, Metridia asymmetrica, Metridia okhotensis, Metridia longa, Lucicutia ovaliformis, Heterorhabdus tanneri, and Pleuromamma scutullata 2) engineered luciferase reporters from deep sea shrimp, such as NanoLuc. The sequence of several such reporter vectors is provided in SEQ ID NO: 881 to SEQ ID NO: 887. The above vectors were used to generate retrovirus and lentiviruses which in turn were used to generate polyclonal population of several target cell lines stably expressing GLuc, NLuc, TurboLuc or MLuc7 following selection with appropriate antibiotics. Unless indicated otherwise, the target cells stably expressing the different luciferases (GLuc, Nluc, MLuc7 or TurboLuc16) were plated in triplicate in a 384 well plate in the media used for growing the target cells. Target cells which grow in suspension were generally plated at a concentration of 2-3×10^4 per well, while target cells which grow as adherent monolayers were plated at a concentration of 1-2×10^4 per well. Unless indicated otherwise, the target cells were cocultured with the genetically modified T cells (i.e. those expressing SIR or CAR) at an Effector:Target (E:T) ratio varying from 1:1 to 10:1 for 4 hours to 96 hours. In the case target cells grow as adherent cells (e.g., HeLa cells), they were allowed to attach to the bottom of the wells overnight before the T cells were added. T cells mediated induction of lysis of target cells was assayed by increase of luciferase activity as measured by BioTek synergy plate reader by directly injecting 0.5×CTZ assay buffer containing native coeloentrazine (Nanaolight).
CTZ assay. A 100× stock solution of native coelenterazine (CTZ; Nanolight, cat #303) was made by dissolving 1 mg of lyophilized CT powder in 1.1 ml of 100% Methanol supplemented with 30 μl of 6N HCl to avoid oxidation of CTZ with time. To make CTZ assay buffer, the 100× stock solution of CTZ was diluted to 0.5× concentration in PBS. Unless indicated otherwise, a total volume of 15 μl of the CTZ assay buffer (as prepared above) was added to each well of a 384-well white plate (Greiner, 384 well white plate cat #781075) containing cells expressing the non-secretory form of the luciferase in approximately 50-60 μl volume of medium and plates were read for luminescence in endpoint mode using BioTek synergyH4 plate reader. For 96 well plates, cells were plated in 200 μl of media and approximately 50 μl of 0.5×CTZ assay buffer was added. Unless indicated otherwise, the 0.5×CTZ assay buffer was used for assaying the activity of GLuc, TurboLuc16, and MLuc7. The CTZ assay buffer (diluted to 0.125× concentration) was also used for measurement of NLuc activity in some experiments (see below).

[2] = test system: target antigen-expressing cell line; test: Jurkat NFAT-GFP assay, coculture with target cell lines expressing the respective target antigen (summary Table 10A); assay type: cell-based, human; parameters: key: The signs +/−, +, 2+ etc. after the name of the cell lines indicate the relative degree of positivity on the Jurkat-NFAT-GFP assay as measured by the % GFP positive cells; +: relative degree of positivity on the Jurkat-NFAT-GFP assay as measured by the % GFP positive cells; 2+: relative degree of positivity on the Jurkat-NFAT-GFP assay as measured by the % GFP positive cells; settings: relative % GFP positive cells; for NFAT-GFP ASSAY Positive Cell lines: RAJI: SIR-expressing Jurkat-NFAT-GFP cells cocultured with RAJI; for NFAT-GFP ASSAY Positive Cell lines: NALM6: SIR-expressing Jurkat-NFAT-GFP cells cocultured with NALM6
Procedure: (B) Induction of NFAT promoter driven GFP expression. The control vector- and SIR-expressing Jurkat-NFAT-GFP cocultured for 4-24 hours with the target antigen-expressing cell line (described above) and their ability to bind to the target antigen is assayed by measuring induction of GFP expression using Flow Cytometry. Cellular supernatant is collected and assayed for the induction of cytokines (e.g., IL2).
Jurkat NFAT-GFP Assay For Synthetic Immune Receptors. The Jurkat-NFAT-GFP cells are engineered in such a way that the IL-2 promoter, which carries NFAT binding sites, is cloned upstream of the GFP gene. These cells have been used to study signaling via TCR and CAR. The different SIRs were stably expressed in Jurkat NFAT-GFP cells by lentiviral mediated gene transfer, followed by selection with puromycin. The SIR-expressing Jurkat-NFAT-GFP cells were cocultured with the target cells at E:T ratio of approximately 1:2 for approximately 4 hours to 18 hours. When the interaction between SIRs and their target antigen results in activation of the NFAT pathway, GFP expression is induced.
Induction of GFP expression by coculturing of Jurkat-NFAT-GFP cells expressing different SIR constructs and the different target cells was studied essentially as described previously (Wu, Roybal, Puchner, Onuffer, & Lim, 2015). GFP expression was monitored by FACS analysis. A few representative examples of this assay are shown in the FIG. 13A-B. In panel A, control Jurkat-NFAT-GFP cells or those expressing SIRs targeting CD19 (clone ID 051716-I08), MPL (Clone ID: 040716-A07) and BCMA (Clone ID: 011116-A07) were incubated with RAJI (top), HEL (middle) or U266 (bottom) cells, respectively. […] In panel B, Jurkat cells expressing SIR targeting CDH6 (Clone ID: 051716-J05), CD276 (Clone ID: 050516-Q06) and Her2/neu (Clone ID: 050516-I03) were incubated with SKOV3 (top) and […] (middle and bottom) cells, respectively. […] The Jurkat-NFAT-GFP cells were engineered to express different SIRs targeting other antigens and the experiment repeated upon coculture with the target cells expressing their respective target antigen. The Jurkat-NFAT-GFP (parental) cells were used as control. The names of different SIRs, their SEQ ID NOs, component antigen binding domains and TCR chains can be determined by reference to Tables 7A-7H. A SIR is considered positive in the assay in case the SIR expressing Jurkat-NFAT-GFP cells show greater % GFP positive cells when cultured with the target cell line as compared to parental Jurkat-NFAT-GFP cells. […] The signs +/−, +, 2+ etc. after the name of the cell lines indicate the relative degree of positivity on the Jurkat-NFAT-GFP assay as measured by the % GFP positive cells after culture of the SIR expressing Jurkat-NFAT-GFP cells with that cell line. […] In addition, great diversity of response against the same target cell line is observed with Jurkat cells expressing SIRs containing different antigen binding domains targeting the same antigen (e.g., SIRs having antigen binding domains derived form different CD19 antibodies) even when the SIRs share the same TCR chains and linkers. Finally, Jurkat cells expressing SIRs targeting different antigens (e.g. CD19 vs CD20) show a diversitiy of response when exposed to the same target cell line. Thus, a diverse immune response can be generated against a single target cell by combining SIRs with different TCR chains, linkers, antigen binding domains and target specificity. Table 10A also summarizes the results of GLuc based T cell cytotoxicity assay observed with different SIRs when exposed to their target cell lines. […]

Compound: C[C@@H]1CC[C@@]2(OC1)O[C@H]1[C@@H](O)[C@H]3[C@@H]4CC[C@H]5C[C@@H](O[C@@H]6O[C@H](CO)[C@H](O[C@@H]7O[C@H](CO)[C@@H](O)[C@H](O[C@@H]8OC[C@@H](O)[C@H](O)[C@H]8O)[C@H]7O[C@@H]7O[C@H](CO)[C@H](O)[C@H](O[C@@H]8O[C@H](CO)[C@@H](O)[C@H](O)[C@H]8O)[C@H]7O)[C@H](O)[C@H]6O)[C@H](O)C[C@]5(C)[C@H]4CC[C@]3(C)[C@H]1[C@@H]2C [digitonin, Digitonin, reference compound]
- mean Gluc values ([1]; E:T 10:1, 4 hours): 3869

Compound: CD8SP-CD19Bu12-vL-Gly-Ser-Linker-CD19Bu12-vH-V5-[hTCRb-WT]-F-P2A-PAC [SEQ ID NO:1022]
- NFAT-GFP ASSAY Positive Cell lines: RAJI [2]: RAJI (+)
- lysis of target cells by increase of GLuc activity (in words) ([1]; E:T 10:1, 4 hours): failed to induce lysis of RAJI cells

Compound: CD8SP-CD20-2F2-vL-[canine-TCRb-opt]-F-P2A-CD20-2F2-vH-[canine-TCRa-opt]-F-F2A-PAC [SEQ ID NO:1113]
- NFAT-GFP ASSAY Positive Cell lines: RAJI [2]: RAJI (+/−)
- lysis of target cells by increase of GLuc activity (in words) ([1]; E:T 10:1, 4 hours): effective induction of target cell lysis

Compound: CD8SP-FMC63-scFv-V5-[TCRb-S57C-opt1]-F-P2A-SP-FMC63-scFv-MYC-[TCRa-T48C-opt1]-T2A-Pac [SEQ ID NO:910]
- NFAT-GFP ASSAY Positive Cell lines: RAJI [2]: RAJI (+/−)

Compound: CD8SP-FMC63-vL-G4Sx2-[hTCRa-S61R-opt]-F-F2A-FMC63-vH-G4Sx2-[hTCRb-R79G-opt]-F-P2A-PAC [SEQ ID NO:955]
- NFAT-GFP ASSAY Positive Cell lines: RAJI [2]: RAJI (+/−)

Compound: CD8SP-FMC63-vL-Gly-Ser-Linker-FMC63-vH-Myc-[preTCRa-Del48]-F-F2A-PAC [SEQ ID NO:914]
- NFAT-GFP ASSAY Positive Cell lines: RAJI [2]: RAJI (+)

Compound: CD8SP-FMC63-vL-Gly-Ser-Linker-FMC63-vH-V5-[hTCRb-S57C-opt]-F-P2A-PAC [SEQ ID NO:912]
- NFAT-GFP ASSAY Positive Cell lines: RAJI [2]: RAJI (+/−)
- lysis of target cells by increase of GLuc activity (in words) ([1]; E:T 10:1, 4 hours): failed to induce lysis of RAJI cells

Compound: CD8SP-FMC63-vL-Gly-Ser-Linker-FMC63-vH-V5-[hTCRb-S57C-opt]-F-P2A-SP-Myc-[hTCRa-T48C-opt]-F-F2A-PAC [SEQ ID NO:991]
- NFAT-GFP ASSAY Positive Cell lines: NALM6 [2]: +
- NFAT-GFP ASSAY Positive Cell lines: RAJI [2]: +/−

Compound: CD8SP-FMC63-vL-Gly-Ser-Linker-FMC63-vH-V5-[hTCRb-WT]-F-P2A-PAC [SEQ ID NO:911]
- NFAT-GFP ASSAY Positive Cell lines: RAJI [2]: RAJI (+)

Compound: CD8SP-FMC63-vL-Myc2-[hTCRb-R79G-opt]-F-P2A-SP-FMC63-vH-Myc4-[hTCRa-S61R-opt]-F-F2A-PAC [SEQ ID NO:937]
- NFAT-GFP ASSAY Positive Cell lines: RAJI [2]: RAJI (+/−)

Compound: CD8SP-FMC63-vL-Myc-[hTCRa-T48C-opt1]-F-F2A-FMC63-VH-V5-[hTCRb-C57C-opt1]-F-P2A-PAC [SEQ ID NO:902]
- lysis of target cells by increase of GLuc activity (in words) ([1]; E:T 10:1, 4 hours): can induce effective lysis of the target cells

Compound: CD8SP-FMC63-vL-Streptag-[hTCRb-R79G]-F-P2A-SP-FMC63-vH-Myc4-[hTCRa-S61R]-F-F2A-PAC [SEQ ID NO:938]
- NFAT-GFP ASSAY Positive Cell lines: RAJI [2]: RAJI (+/−)

Compound: CD8SP-FMC63-vL-V5-[hTCRb-S57C-opt]-F-P2A-SP-FMC63-vH-Myc-[hTCRa-T48C-opt]-F-F2A-PAC [SEQ ID NO:951]
- lysis of target cells by increase of GLuc activity (in words) ([1]; E:T 10:1, 4 hours): induced effective target cell lysis; also recorded: Modest cytotoxicity

Compound: CD8SP-FMC63-vL-V5-[hTCRb-WT]-F-P2A-SP-FMC63-vH-Myc-[hTCRa-WT]-F-F2A-PAC [SEQ ID NO:922]
- NFAT-GFP ASSAY Positive Cell lines: RAJI [2]: RAJI (2+)
- lysis of target cells by increase of GLuc activity (in words) ([1]; E:T 1:1, 96 hours): fails to cause significant target cell lysis
- lysis of target cells by increase of GLuc activity (in words) ([1]; E:T 10:1, 4 hours): fails to cause significant target cell lysis

Compound: CD8SP-FMC63-vL-V5-[mTCRb-opt]-F-P2A-SP-FMC63-vH-Myc-[mTCRa-opt]-F-F2A-PAC [SEQ ID NO:953]
- lysis of target cells by increase of GLuc activity (in words) ([1]; E:T 1:1, 96 hours): increase in GLuc activity
- lysis of target cells by increase of GLuc activity (in words) ([1]; E:T 10:1, 4 hours): increase in GLuc activity

Compound: IgHSP-FMC63-vH-[hTCRb-C57C-opt]-F-P2A-CD8SP-FMC63-VL-MYC-[hTCRa-T48C-opt]-F-F2A-Pac [SEQ ID NO:901]
- NFAT-GFP ASSAY Positive Cell lines: NALM6 [2]: RAJI(2+), NALM6(2+)
- NFAT-GFP ASSAY Positive Cell lines: RAJI [2]: RAJI(2+), NALM6(2+)
- lysis of target cells by increase of GLuc activity (in words) ([1]; E:T 10:1, 4 hours): can also induce effective lysis of the target cells
